The term T/C denotes the ratio of treated to control.

For test [1], the system named is L1210. Put plainly: Antitumor activity was assessed against L1210 tumors in B6D2F1 mouse by inoculation of 10e5 tumor cells through intravenous route and mean death of animals (treated/control) was reported at 10 mg/kg peroral dose. To be noted: route oral. Format: functional.
Test [2] relates to L1210. Put plainly: Antitumor activity was assessed against L1210 tumors in B6D2F1 mouse by inoculation of 10e5 tumor cells through intraperitoneal route and number of Survivors to duration was reported at 40 mg/kg peroral dose; 4/10. Particulars: route oral.
Test [3] can be described thus: Antitumor activity was assessed against TLX5 tumors in CBA/CA mouse by inoculation of 2 x 10e5 tumor cells through subcutaneous route and number of Survivors to duration was reported at 80 mg/kg iv dose; 3/5.
Test [4] has as its system L1210. Briefly: Antitumor activity was assessed against L1210 tumors in B6D2F1 mouse by inoculation of 10e5 tumor cells through intraperitoneal route and number of Survivors to duration was reported at 20 mg/kg peroral dose; 8/10. To be noted: route oral.
Test [5] is described as follows: Antitumor activity was assessed against TLX5 tumors in CBA/CA mouse by inoculation of 2 x 10e5 tumor cells through subcutaneous route and mean death of animals (treated/control) was reported at 160 mg/kg dose. Format: functional.
Test [6] has as its system L1210. Put plainly: Antitumor activity was assessed against L1210 tumors in B6D2F1 mouse by inoculation of 10e5 tumor cells through intravenous route and mean death of animals (treated/control) was reported at 20 mg/kg peroral dose. Format: functional. To be noted: route oral.
Test [7] in a line: Antitumor activity was assessed against TLX5 tumors in CBA/CA mouse by inoculation of 2 x 10e5 tumor cells through subcutaneous route and mean death of animals (treated/control) was reported at 40 mg/kg dose. Format: functional.
A short description of test [8]: Antitumor activity was assessed against TLX5 tumors in CBA/CA mouse by inoculation of 2 x 10e5 tumor cells through subcutaneous route and mean death of animals (treated/control) was reported at 80 mg/kg dose. Format: functional.
A short description of test [9]: Antitumor activity was assessed against TLX5 tumors in CBA/CA mouse by inoculation of 2 x 10e5 tumor cells through subcutaneous route and mean death of animals (treated/control) was reported at 20 mg/kg dose. Format: functional.
The nature of test [10]: Antitumor activity was assessed against TLX5 tumors in CBA/CA mouse by inoculation of 2 x 10e5 tumor cells through subcutaneous route and number of Survivors to duration was reported at 40 mg/kg iv dose; 5/5.
Test [11] deals with L1210. Briefly: Antitumor activity was assessed against L1210 tumors in B6D2F1 mouse by inoculation of 10e5 tumor cells through intravenous route and mean death of animals (treated/control) was reported at 40 mg/kg peroral dose. Format: functional. To be noted: route oral.
In test [12] the test system is L1210. Put plainly: Antitumor activity was assessed against L1210 tumors in B6D2F1 mouse by inoculation of 10e5 tumor cells through iv route and number of survivors to duration was reported at 200 mg/kg po dose; 2/7. Format: functional.
Test [13] relates to L1210. Put plainly: Antitumor activity was assessed against L1210 tumors in B6D2F1 mouse by inoculation of 10e5 tumor cells through iv route and mean death of animals (treated/control) was reported at 50 mg/kg po dose. Format: functional.
Test [14] deals with L1210. Put plainly: Antitumor activity was assessed against L1210 tumors in B6D2F1 mouse by inoculation of 10e5 tumor cells through iv route and mean death of animals (treated/control) was reported at 200 mg/kg po dose. Format: functional.
Test [15] concerns L1210. Briefly: Antitumor activity was assessed against L1210 tumors in B6D2F1 mouse by inoculation of 10e5 tumor cells through iv route and mean death of animals (treated/control) was reported at 100 mg/kg po dose. Format: functional.
In test [16] the test system is L1210. Briefly: Antitumor activity was assessed against L1210 tumors in B6D2F1 mouse by inoculation of 10e5 tumor cells through intraperitoneal route and mean death of animals (treated/control) was reported at 200 mg/kg peroral dose. Format: functional. To be noted: route oral.
The nature of test [17]: Antitumor activity was assessed against TLX5 tumors in CBA/CA mouse by inoculation of 2 x 10e5 tumor cells through subcutaneous route and mean death of animals (treated/control) was reported at 40 mg/kg iv dose. Format: functional.
Test [18] in a line: Antitumor activity was assessed against TLX5 tumors in CBA/CA mouse by inoculation of 2 x 10e5 tumor cells through subcutaneous route and mean death of animals (treated/control) was reported at 640 mg/kg iv dose. Format: functional.
Test [19] can be described thus: Antitumor activity was assessed against TLX5 tumors in CBA/CA mouse by inoculation of 2 x 10e5 tumor cells through subcutaneous route and mean death of animals (treated/control) was reported at 80 mg/kg iv dose. Format: functional.
The nature of test [20]: Antitumor activity was assessed against TLX5 tumors in CBA/CA mouse by inoculation of 2 x 10e5 tumor cells through subcutaneous route and mean death of animals (treated/control) was reported at 320 mg/kg iv dose. Format: functional.
A short description of test [21]: Antitumor activity was assessed against TLX5 tumors in CBA/CA mouse by inoculation of 2 x 10e5 tumor cells through subcutaneous route and mean death of animals (treated/control) was reported at 160 mg/kg iv dose. Format: functional.
For test [22], the system named is L1210. Put plainly: Antitumor activity was assessed against L1210 tumors in B6D2F1 mouse by inoculation of 10e5 tumor cells through intraperitoneal route and mean death of animals (treated/control) was reported at 100 mg/kg peroral dose. Format: functional. Particulars: route oral.
For test [23], the system named is L1210. Briefly: Antitumor activity was assessed against L1210 tumors in B6D2F1 mouse by inoculation of 10e5 tumor cells through intraperitoneal route and mean death of animals (treated/control) was reported at 50 mg/kg peroral dose. Format: functional. Particulars: route oral.
The nature of test [24]: Antitumor activity was assessed against TLX5 tumors in CBA/CA mouse by inoculation of 2 x 10e5 tumor cells through sc route and number of Survivors to duration was reported at 320 mg/kg iv dose; 1/5. Format: functional.

A value given as a limit tells only on which side of the number the result lay.

For `CN(C)C(=O)c1ncn2c(=O)n(CCCl)nnc12`, the T/C in test [1] is recorded as 197%; in test [5], 68%; in [6] it was over 290%; in test [7] it was over 508%; in test [8] it was over 358%; in [9] it was 161%. For the same compound, in [11], the T/C was over 235%. Besides, the Survivors in [2] was 4; in test [3], 3; in [4] it was 8; in test [10], 5.
In [12], `CCCc1nc(C(N)=O)c2nnn(CCCl)c(=O)n12` showed a Survivors of 2. Besides, the T/C is reported as 151% in test [13], over 295% in test [14] and 186% in test [15].
In the case of `O=C(c1ncn2c(=O)n(CCCl)nnc12)N1CCCCC1`, the T/C in test [16] is on record as 171%; in test [17], 98%; in test [18] it was 25%; in [19], 102%; in test [20], over 234%; in [21], 120%. The T/C in [22] is 108%; in test [23], 100%. This compound displayed a Survivors in test [24] of 1.

The record behind these values is ChEMBL document CHEMBL1123898, “Antitumor imidazotetrazines. 14. Synthesis and antitumor activity of 6- and 8-substituted imidazo[5,1-d]-1,2,3,5-tetrazinones and 8-substituted pyrazolo[5,1-d]-1,2,3,5-tetrazinones” (1987).
